Results: patent US20230365592A1 (Agios Pharmaceuticals, Inc., priority 2022, published 2023)

Target: T1, human PAH with the R408W mutation (Homo sapiens, UniProt P00439, R408W)
T1 construct: expressed in transfected cells
T1 sequence (P00439 1-452 R408W): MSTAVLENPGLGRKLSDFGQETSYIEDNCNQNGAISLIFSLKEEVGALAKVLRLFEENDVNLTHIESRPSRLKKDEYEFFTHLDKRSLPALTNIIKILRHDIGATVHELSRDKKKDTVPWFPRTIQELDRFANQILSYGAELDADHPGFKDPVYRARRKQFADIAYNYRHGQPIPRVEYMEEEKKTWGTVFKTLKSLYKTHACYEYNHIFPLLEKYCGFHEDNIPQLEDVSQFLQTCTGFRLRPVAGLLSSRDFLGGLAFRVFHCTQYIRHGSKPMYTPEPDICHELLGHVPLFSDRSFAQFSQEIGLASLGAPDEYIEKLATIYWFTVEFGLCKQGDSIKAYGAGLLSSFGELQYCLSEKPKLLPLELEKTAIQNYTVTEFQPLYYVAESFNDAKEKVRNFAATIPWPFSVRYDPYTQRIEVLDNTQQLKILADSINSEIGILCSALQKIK
Assay: Cell Based Phenylalanine Flux Assay;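 note: after compound treatment, cells received sepiapterin plus isotope-labelled Phenylalanine for 4 hours, then labelled Tyrosine in the medium was quantified, 10-point 2-fold dilution series run in duplicate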
Conditions: A375 cells expressing R408W PAH; 24 hrs with compound, then 20 µM sepiapterin and 800 µM 13C9,15N-Phenylalanine for 4 hours; 13C-Tyrosine by LC-MS; average where tested multiple times; read-out: AC50

Compound | AC50 [µM]
O=C(Cc1cnn2ccccc12)N1CCc2[nH]cnc2C1c1cc2ccccn2n1 (stereo not shown) | > 5
Cc1cccc2cc(C3c4nc[nH]c4CCN3C(=O)c3nc(C(F)(F)F)nn3C)nn12 (stereo not shown) [listing 1 of 2 here] | > 5
Cc1nc(C(=O)N2CCc3[nH]cnc3C2c2cc3cccc(C(F)(F)F)n3n2)n(C)n1 (stereo not shown) [listing 1 of 2 here] | > 5
Cn1cc(-c2nnc(C(=O)N3CCc4[nH]cnc4C3c3cc4cc(C(F)(F)F)ccn4n3)o2)cn1 (stereo not shown) [listing 1 of 2 here] | > 5
CC(C)(F)c1nnc(C(=O)N2CCc3[nH]cnc3C2c2cc3cc(F)ccn3n2)o1 (stereo not shown) | 1 to 5
Cc1ccn2nc(C3c4nc[nH]c4CCN3C(=O)c3nnc(C(C)(C)F)o3)cc2c1 (stereo not shown) [listing 1 of 2 here] | > 5
O=C(c1ccn(-c2ccccn2)n1)N1CCc2[nH]cnc2C1c1cc2c(F)cccn2n1 (stereo not shown) [listing 1 of 2 here] | 1 to 5
Cc1cccn2nc(C3c4nc[nH]c4CCN3C(=O)c3ccn(-c4ccccn4)n3)cc12 (stereo not shown) [listing 1 of 2 here] | > 5
Cc1nnc(C(=O)N2CCc3[nH]cnc3C2c2cc3cc(F)ccn3n2)o1 (stereo not shown) [listing 1 of 2 here] | 1 to 5
Cc1nnc(C(=O)N2CCc3[nH]cnc3C2c2cc3cccc(Cl)n3n2)o1 (stereo not shown) [listing 1 of 2 here] | 1 to 5
O=C(c1nnc(-c2ccccn2)o1)N1CCc2[nH]cnc2C1c1cc2cc(C(F)(F)F)ccn2n1 (stereo not shown) [listing 1 of 2 here] | 1 to 5
O=C(c1nnc(-c2ccccn2)o1)N1CCc2[nH]cnc2C1c1cc2cc(F)ccn2n1 (stereo not shown) [listing 1 of 2 here] | > 5
CC(C)(O)c1nnc(C(=O)N2CCc3[nH]cnc3C2c2cc3cccc(C(F)(F)F)n3n2)o1 (stereo not shown) [listing 1 of 2 here] | 1 to 5
Cc1c(C2c3nc[nH]c3CCN2C(=O)c2nnc(C3CC3)o2)nn2ccccc12 (stereo not shown) [listing 1 of 2 here] | 1 to 5
Cc1ccn2nc(C3c4nc[nH]c4CCN3C(=O)c3nnc(C4CC4)o3)cc2c1 (stereo not shown) [listing 1 of 2 here] | 1 to 5
CC(C)(C)c1nnc(C(=O)N2CCc3[nH]cnc3C2c2cc3cc(F)ccn3n2)o1 (stereo not shown) [listing 1 of 2 here] | > 5
Cn1nc(C(C)(C)C)cc1C(=O)N1CCc2[nH]cnc2C1c1cc2ccccn2n1 (stereo not shown) [listing 1 of 2 here] | 1 to 5
CN1CCN(c2nnc(C(=O)N3CCc4[nH]cnc4C3c3cc4c(F)cccn4n3)o2)CC1 (stereo not shown) | 1 to 5
Cc1cccn2nc(C3c4nc[nH]c4CCN3C(=O)c3nnc(N4CCN(C)CC4)o3)cc12 (stereo not shown) | 1 to 5
CN1CCN(c2nnc(C(=O)N3CCc4[nH]cnc4C3c3cc4ccccn4n3)o2)CC1 (stereo not shown) | > 5
Cc1cccc2cc(C3c4nc[nH]c4CCN3C(=O)c3nc(C(F)(F)F)nn3C)nn12 (stereo not shown) [listing 2 of 2 here] | 1 to 5
Cc1cccc2cc(C3c4nc[nH]c4CCN3C(=O)c3ncnn3C)nn12 (stereo not shown) | 1 to 5
Cc1nc(C(=O)N2CCc3[nH]cnc3C2c2cc3cccc(C(F)(F)F)n3n2)n(C)n1 (stereo not shown) [listing 2 of 2 here] | 1 to 5
Cc1nc(C(=O)N2CCc3[nH]cnc3C2c2cc3cccc(C)n3n2)n(C)n1 (stereo not shown) | 1 to 5
Cc1cccc2cc(C3c4nc[nH]c4CCN3C(=O)c3nnc(-c4cncn4C)o3)nn12 (stereo not shown) | 1 to 5
Cn1cc(-c2nnc(C(=O)N3CCc4[nH]cnc4C3c3cc4cc(C(F)(F)F)ccn4n3)o2)cn1 (stereo not shown) [listing 2 of 2 here] | 1 to 5
Cc1ccn2nc(C3c4nc[nH]c4CCN3C(=O)c3nnc(C(C)(C)F)o3)cc2c1 (stereo not shown) [listing 2 of 2 here] | 1 to 5

Compound | AC50 [µM]
Cc1cccn2nc(C3c4nc[nH]c4CCN3C(=O)c3ccn(-c4ccccn4)n3)cc12 (stereo not shown) [listing 2 of 2 here] | 1 to 5
Cn1ccc(-c2nnc(C(=O)N3CCc4[nH]cnc4C3c3cc4cc(F)ccn4n3)o2)n1 (stereo not shown) [listing 2 of 2 here] | 1 to 5
Cc1nnc(C(=O)N2CCc3[nH]cnc3C2c2cc3cc(F)ccn3n2)o1 (stereo not shown) [listing 2 of 2 here] | 1 to 5
Cn1cc(-c2nnc(C(=O)N3CCc4[nH]cnc4C3c3cc4cc(F)ccn4n3)o2)cn1 (stereo not shown) | 1 to 5
Cn1cncc1-c1nnc(C(=O)N2CCc3[nH]cnc3C2c2cc3cccc(Cl)n3n2)o1 (stereo not shown) | 1 to 5
Cc1nnc(C(=O)N2CCc3[nH]cnc3C2c2cc3cccc(Cl)n3n2)o1 (stereo not shown) [listing 2 of 2 here] | 1 to 5
CC(C)(O)c1nnc(C(=O)N2CCc3[nH]cnc3C2c2cc3c(C(F)(F)F)cccn3n2)o1 (stereo not shown) | 1 to 5
O=C(c1nnc(-c2ccccn2)o1)N1CCc2[nH]cnc2C1c1cc2cc(C(F)(F)F)ccn2n1 (stereo not shown) [listing 2 of 2 here] | 1 to 5
O=C(c1nnc(-c2ccccn2)o1)N1CCc2[nH]cnc2C1c1cc2cc(F)ccn2n1 (stereo not shown) [listing 2 of 2 here] | 1 to 5
CC(C)(O)c1nnc(C(=O)N2CCc3[nH]cnc3C2c2cc3ccc(F)cn3n2)o1 (stereo not shown) | 1 to 5
O=C(c1nnc(C2CC2)o1)N1CCc2[nH]cnc2C1c1cc2cc(C(F)(F)F)ccn2n1 (stereo not shown) | 1 to 5
Cc1ccn2nc(C3c4nc[nH]c4CCN3C(=O)c3nnc(C4CC4)o3)cc2c1 (stereo not shown) [listing 2 of 2 here] | 1 to 5
O=C(c1nnc(C2CC2)o1)N1CCc2[nH]cnc2C1c1cc2ccc(C(F)(F)F)cn2n1 (stereo not shown) | 1 to 5
Cc1nnc(C(=O)N2CCc3[nH]cnc3C2c2cc3ccc(C(F)(F)F)cn3n2)o1 (stereo not shown) | 1 to 5
Cc1nnc(C(=O)N2CCc3[nH]cnc3C2c2cc3cccc(C(F)(F)F)n3n2)o1 (stereo not shown) | 1 to 5
Cc1nnc(C(=O)N2CCc3[nH]cnc3C2c2cc3cccc(C)n3n2)o1 (stereo not shown) | 1 to 5
CC(C)(C)c1nnc(C(=O)N2CCc3[nH]cnc3C2c2cc3ccc(C(F)(F)F)cn3n2)o1 (stereo not shown) | 1 to 5
Cc1cccc2cc(C3c4nc[nH]c4CCN3C(=O)c3nc(C(F)F)nn3C)nn12 (stereo not shown) | 1 to 5
Cn1nc(C(F)F)nc1C(=O)N1CCc2[nH]cnc2C1c1cc2cc(F)ccn2n1 (stereo not shown) | 1 to 5
Cc1cccn2nc(C3c4nc[nH]c4CCN3C(=O)c3cc(C(C)(C)C)nn3C)cc12 (stereo not shown) [listing 2 of 2 here] | 1 to 5
Cn1nc(C(C)(C)C)cc1C(=O)N1CCc2[nH]cnc2C1c1cc2ccccn2n1 (stereo not shown) [listing 2 of 2 here] | 1 to 5
Cn1nc(C(C)(C)C)cc1C(=O)N1CCc2[nH]cnc2C1c1cc2c(F)cccn2n1 (stereo not shown) | 1 to 5
O=C(c1ocnc1CC(F)F)N1CCc2[nH]cnc2C1c1cc2ccccn2n1 (stereo not shown) | 1 to 5
O=C(c1ocnc1C(F)F)N1CCc2[nH]cnc2C1c1cc2cc(C(F)(F)F)ccn2n1 (stereo not shown) | 1 to 5
Cc1nc(C(=O)N2CCc3[nH]cnc3C2c2cc3cccc(Cl)n3n2)n(C)n1 (stereo not shown) | > 5
Cn1ncnc1C(=O)N1CCc2[nH]cnc2C1c1cc2cccc(Cl)n2n1 (stereo not shown) [listing 2 of 2 here] | 1 to 5
O=C(C1CC1)N1CCc2[nH]cnc2C1c1cc2ccccn2n1 (stereo not shown) | 1 to 5

More lines, now with the values ahead:

AC50 [µM] | Compound
> 5 | Cc1nnc(C(=O)N2CCc3[nH]cnc3C2c2cc3c(F)cccn3n2)o1 (stereo not shown) [listing 1 of 2 here]
> 5 | Cn1ccc(-c2nnc(C(=O)N3CCc4[nH]cnc4C3c3cc4cc(F)ccn4n3)o2)n1 (stereo not shown) [listing 1 of 2 here]
> 5 | Cc1ccn2nc(C3c4nc[nH]c4CCN3C(=O)c3nnc(C(C)(C)O)o3)cc2c1 (stereo not shown) [listing 1 of 2 here]
1 to 5 | Cc1ccn2nc(C3c4nc[nH]c4CCN3C(=O)c3nnc(C(C)(C)C)o3)cc2c1 (stereo not shown) [listing 1 of 2 here]
> 5 | Cc1cccn2nc(C3c4nc[nH]c4CCN3C(=O)c3cc(C(C)(C)C)nn3C)cc12 (stereo not shown) [listing 1 of 2 here]
1 to 5 | Cn1ncnc1C(=O)N1CCc2[nH]cnc2C1c1cc2cccc(Cl)n2n1 (stereo not shown) [listing 1 of 2 here]
1 to 5 | O=C(Cc1nncs1)N1CCc2nc[nH]c2C1c1cc2ccccn2n1 (stereo not shown)
1 to 5 | Cc1nc(C(=O)N2CCc3[nH]cnc3C2c2cc3ccccn3n2)n(C)n1 (stereo not shown)
1 to 5 | Cn1ccc(-c2nnc(C(=O)N3CCc4[nH]cnc4C3c3cc4cc(C(F)(F)F)ccn4n3)o2)n1 (stereo not shown)
1 to 5 | O=C(c1ccn(-c2ccccn2)n1)N1CCc2[nH]cnc2C1c1cc2c(F)cccn2n1 (stereo not shown) [listing 2 of 2 here]
1 to 5 | Cc1nnc(C(=O)N2CCc3[nH]cnc3C2c2cc3c(F)cccn3n2)o1 (stereo not shown) [listing 2 of 2 here]
> 5 | CC(C)(O)c1nnc(C(=O)N2CCc3[nH]cnc3C2c2cc3cc(F)ccn3n2)o1 (stereo not shown)
1 to 5 | Cc1ccn2nc(C3c4nc[nH]c4CCN3C(=O)c3nnc(C(C)(C)O)o3)cc2c1 (stereo not shown) [listing 2 of 2 here]
1 to 5 | CC(C)(O)c1nnc(C(=O)N2CCc3[nH]cnc3C2c2cc3ccc(C(F)(F)F)cn3n2)o1 (stereo not shown)
1 to 5 | CC(C)(O)c1nnc(C(=O)N2CCc3[nH]cnc3C2c2cc3cccc(C(F)(F)F)n3n2)o1 (stereo not shown) [listing 2 of 2 here]
1 to 5 | CC(C)(O)c1nnc(C(=O)N2CCc3[nH]cnc3C2c2cc3cccc(Cl)n3n2)o1 (stereo not shown)
1 to 5 | CC(C)(O)c1nnc(C(=O)N2CCc3[nH]cnc3C2c2cc3ccccn3n2)o1 (stereo not shown)
1 to 5 | Cc1c(C2c3nc[nH]c3CCN2C(=O)c2nnc(C3CC3)o2)nn2ccccc12 (stereo not shown) [listing 2 of 2 here]
> 5 | Cc1ccn2nc(C3c4nc[nH]c4CCN3C(=O)c3nnc(C)o3)cc2c1 (stereo not shown)
1 to 5 | CC(C)(C)c1nnc(C(=O)N2CCc3[nH]cnc3C2c2cc3cc(F)ccn3n2)o1 (stereo not shown) [listing 2 of 2 here]
1 to 5 | Cc1ccn2nc(C3c4nc[nH]c4CCN3C(=O)c3nnc(C(C)(C)C)o3)cc2c1 (stereo not shown) [listing 2 of 2 here]
1 to 5 | Cn1nc(C(F)F)nc1C(=O)N1CCc2[nH]cnc2C1c1cc2cccc(C(F)(F)F)n2n1 (stereo not shown)
1 to 5 | Cc1cccc2cc(C3c4nc[nH]c4CCN3C(=O)c3nc(C4CC4)nn3C)nn12 (stereo not shown)
1 to 5 | COc1cccn2nc(C3c4nc[nH]c4CCN3C(=O)c3cc(C(C)(C)C)nn3C)cc12 (stereo not shown)
1 to 5 | Cn1nc(C2CC2)nc1C(=O)N1CCc2[nH]cnc2C1c1cc2cccc(Cl)n2n1 (stereo not shown)
